Among the data in patent publication US20160046618A1, “Cyclopropyl Fused Thiazin-2-Amine Compounds as Beta-Secretase Inhibitors and Methods of Use” (AMGEN INC., priority 2014, published 2016) are IC50 values, retold here.

Where two headings read alike, the source gives them in different places. A value given as a limit tells only on which side of the number the result lay.

For one experiment, the target named is human recombinant BACE1 (Homo sapiens (Human), UniProt P56817). Description: In vitro enzymatic BACE1 FRET assay. Format: biochemical. The note with it: read-out: IC50 IP (μM) BACE1 enzyme. The method in brief:
(§1)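 FRET cleavage assay using Ni-NTA-purified recombinant protease and 50 nM quenched peptide substrate, 1 h. Stopped by neutralising with Tris; fluorescence at 488/590 nm.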

Another experiment deals with human recombinant BACE2 (Homo sapiens (Human), UniProt Q9Y5Z0). Description: In vitro enzymatic BACE2 FRET assay. In kind it is biochemical. Conditions: read-out: IC50 IP (μM) BACE2 enzyme. The method in brief: as §1
human recombinant BACE2, sequence (Q9Y5Z0 63-518): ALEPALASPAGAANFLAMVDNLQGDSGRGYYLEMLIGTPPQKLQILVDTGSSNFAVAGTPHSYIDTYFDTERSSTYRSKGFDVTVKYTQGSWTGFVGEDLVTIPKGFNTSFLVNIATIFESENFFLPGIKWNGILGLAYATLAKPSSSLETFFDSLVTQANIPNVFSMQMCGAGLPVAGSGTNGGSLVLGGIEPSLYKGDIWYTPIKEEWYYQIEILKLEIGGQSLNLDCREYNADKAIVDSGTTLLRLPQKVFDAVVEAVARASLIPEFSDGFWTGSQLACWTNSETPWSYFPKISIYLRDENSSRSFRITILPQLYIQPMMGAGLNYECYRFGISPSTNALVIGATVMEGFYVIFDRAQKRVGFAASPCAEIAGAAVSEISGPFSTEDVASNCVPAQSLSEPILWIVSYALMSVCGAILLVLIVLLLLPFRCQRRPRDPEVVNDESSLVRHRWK
For experiment [1], the system named is Aβ40 in conditioned medium of cells stably expressing Amyloid Precursor Protein (APP). In words: In vitro BACE-1 cell-based assay (Aβ40 sandwich ELISA). The note with it: read-out: IC50 IP (μM) BACE1 cell. The gist of the method:
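APP-stable cells, pre-cultured 24 h at 37° C in DMEM/10% FBS, were treated 24 h with compound in a 10-point series starting at 100 μM or 10 μM (0.1% DMSO final). Secreted Aβ40 in conditioned medium was measured by pAb40/biotin-6E10 sandwich ELISA with Europium time-resolved fluorescence; IC50 from percent inhibition versus concentration.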

The target of the next experiment is Recombinant Cat D (Homo sapiens (Human), UniProt P07339). In words: In vitro enzymatic Cathepsin D (Cat D) FRET assay. In kind it is biochemical. Conditions: read-out: IC50 IP (μM) CatD. The gist of the method:
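CHO-expressed enzyme; buffer 0.05 M citrate pH 3.5, 5 mM CHAPS, 10% DMSO final. Start with FRET substrate 20 nM, 1 h incubation, Tris stop (pH to neutral), fluorescence ex 500 nm/em 580 nm.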

human recombinant BACE1, sequence (P56817 46-501): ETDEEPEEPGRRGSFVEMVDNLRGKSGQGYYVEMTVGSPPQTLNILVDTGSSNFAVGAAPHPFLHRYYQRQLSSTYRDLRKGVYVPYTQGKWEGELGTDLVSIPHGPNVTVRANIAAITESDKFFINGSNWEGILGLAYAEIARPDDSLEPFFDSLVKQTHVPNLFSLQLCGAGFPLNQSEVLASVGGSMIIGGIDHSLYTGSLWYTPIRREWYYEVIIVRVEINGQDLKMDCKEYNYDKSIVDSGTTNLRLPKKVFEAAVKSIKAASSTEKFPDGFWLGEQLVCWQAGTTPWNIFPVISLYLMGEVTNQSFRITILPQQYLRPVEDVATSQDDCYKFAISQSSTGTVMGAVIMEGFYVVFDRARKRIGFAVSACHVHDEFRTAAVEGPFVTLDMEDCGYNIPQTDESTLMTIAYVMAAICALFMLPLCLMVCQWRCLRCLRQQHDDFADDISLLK
Recombinant Cat D, sequence (P07339 65-412): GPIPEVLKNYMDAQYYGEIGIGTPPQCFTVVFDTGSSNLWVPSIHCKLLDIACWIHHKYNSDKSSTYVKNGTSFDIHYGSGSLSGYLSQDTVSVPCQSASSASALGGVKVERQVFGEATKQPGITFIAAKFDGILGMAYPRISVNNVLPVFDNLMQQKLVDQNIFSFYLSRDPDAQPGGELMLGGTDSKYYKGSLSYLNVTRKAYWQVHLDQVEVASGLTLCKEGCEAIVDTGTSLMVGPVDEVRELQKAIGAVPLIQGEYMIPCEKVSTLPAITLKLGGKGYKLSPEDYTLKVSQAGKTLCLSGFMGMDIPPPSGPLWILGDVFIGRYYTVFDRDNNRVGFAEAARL

Take `C#C[C@H](C)Oc1cnc2c(Nc3ccc(F)c([C@@]4(CF)N=C(N)S[C@@]5(CF)C[C@H]54)c3)nccc2n1` [Example 879, N-(3-((1S,5S,6S)-3-amino-1,5-bis(fluoromethyl)-2-thia-4-azabicyclo[4.1.0]hept-3-en-5-yl)-4-fluorophenyl)-2-(((1S)-1-methyl-2-propyn-1-yl)oxy)pyrido[3,4-b]pyrazin-5-amine]: the IC50 stood at 0.00107 µM on human recombinant BACE1, 0.282 µM on human recombinant BACE2, 0.0179 µM in experiment [1] and 2690 µM at Recombinant Cat D.

As for `COc1cnc2c(Nc3cc(F)c(F)c([C@@]4(CF)N=C(N)S[C@H]5C[C@H]54)c3)nccc2n1` [Example 62, N-(3-((1S,5S,6S)-3-amino-5-(fluoromethyl)-2-thia-4-azabicyclo[4.1.0]hept-3-en-5-yl)-4,5-difluorophenyl)-2-methoxypyrido[3,4-b]pyrazin-5-amine], the IC50 on human recombinant BACE1 (BACE1 FRET enzyme assay) was 0.0289 µM; on human recombinant BACE2 (BACE2 FRET enzyme assay), 0.0885 µM; in experiment [1] (BACE1 cell-based assay) it was 0.14 µM; on Recombinant Cat D (Cathepsin D FRET enzyme assay), 295 µM.

In the case of `C#CCOc1cnc(C(=O)Nc2cc(F)c(F)c([C@@]3(C)N=C(N)S[C@@]4(C(=O)N5CCCC5)C[C@H]43)c2)cn1` [Example 934, N-(3-((1S,5S,6S)-3-amino-5-methyl-1-(1-pyrrolidinylcarbonyl)-2-thia-4-azabicyclo[4.1.0]hept-3-en-5-yl)-4,5-difluorophenyl)-5-(2-propyn-1-yloxy)-2-pyrazinecarboxamide], the IC50 is 0.000393 µM on human recombinant BACE1, below 0.00203 µM at human recombinant BACE2, 0.000378 µM in experiment [1] and 12.9 µM on Recombinant Cat D.

Take `COC[C@]12C[C@H]1[C@@](C)(c1cc(Nc3ncnc4cc(Cl)cnc34)cnc1F)N=C(N)S2` [Example 844, (1S,5S,6S)-5-(5-((7-chloropyrido[3,2-d]pyrimidin-4-yl)amino)-2-fluoropyridin-3-yl)-1-(methoxymethyl)-5-methyl-2-thia-4-azabicyclo[4.1.0]hept-3-en-3-amine]: the IC50 was 0.0219 µM at human recombinant BACE1, 0.0108 µM on human recombinant BACE2, 0.0145 µM in experiment [1] and 1780 µM on Recombinant Cat D.

In the case of `COC[C@]12C[C@H]1[C@@](C)(c1cc(NC(=O)c3ncc(OCC(F)(F)F)nc3C)cc(F)c1F)N=C(N)S2` [Example 618, N-(3-((1S,5S,6S)-3-amino-1-(methoxymethyl)-5-methyl-2-thia-4-azabicyclo[4.1.0]hept-3-en-5-yl)-4,5-difluorophenyl)-3-methyl-5-(2,2,2-trifluoroethoxy)-2-pyrazinecarboxamide], the IC50 came out at 0.00606 µM at human recombinant BACE1, 0.0161 µM on human recombinant BACE2, 0.0557 µM in experiment [1] and 1020 µM at Recombinant Cat D.

As for `COC[C@]12C[C@H]1[C@@](C)(c1cc(NC(=O)c3cnc(OCC(F)(F)F)cn3)cc(C)c1F)N=C(N)S2` [Example 1065, N-(3-((1S,5S,6S)-3-amino-1-(methoxymethyl)-5-methyl-2-thia-4-azabicyclo[4.1.0]hept-3-en-5-yl)-4-fluoro-5-methylphenyl)-5-(2,2,2-trifluoroethoxy)-2-pyrazinecarboxamide], the IC50 on human recombinant BACE1 is 0.000256 µM; at human recombinant BACE2, 0.0636 µM; in experiment [1], 0.00294 µM; on Recombinant Cat D it was 1580 µM.

For `Cc1cc(Cl)cnc1C(=O)Nc1cc(F)c(F)c([C@@]2(CF)N=C(N)S[C@H]3C[C@H]32)c1` [Example 78, N-(3-((1S,5S,6S)-3-amino-5-(fluoromethyl)-2-thia-4-azabicyclo[4.1.0]hept-3-en-5-yl)-4,5-difluorophenyl)-5-chloro-3-methyl-2-pyridinecarboxamide], the IC50 on human recombinant BACE1 (BACE1 FRET enzyme assay) was 0.00464 µM; on human recombinant BACE2 (BACE2 FRET enzyme assay), 0.00126 µM; in experiment [1] (BACE1 cell-based assay), 0.0917 µM; at Recombinant Cat D (Cathepsin D FRET enzyme assay), 627 µM.

Turning to `N#CCC[C@]12C[C@H]1[C@@](CF)(c1cc(NC(=O)c3ccc(Cl)cn3)ccc1F)N=C(N)S2` [Example 723, N-(3-((1S,5S,6S)-3-amino-1-(2-cyanoethyl)-5-(fluoromethyl)-2-thia-4-azabicyclo[4.1.0]hept-3-en-5-yl)-4-fluorophenyl)-5-chloro-2-pyridinecarboxamide], the concentration for half-maximal inhibition (IC50) at human recombinant BACE1 was 0.00169 µM; at human recombinant BACE2, below 0.00203 µM; in experiment [1], 0.00431 µM; on Recombinant Cat D, 282 µM.

For the molecule `CC#CCOc1cnc2c(Nc3cc(F)c(F)c([C@@]4(C)N=C(N)S[C@@]5(C(N)=O)C[C@H]54)c3)nccc2n1` [Example 920, (1S,5S,6S)-3-amino-5-(5-((2-(2-butyn-1-yloxy)pyrido[3,4-b]pyrazin-5-yl)amino)-2,3-difluorophenyl)-5-methyl-2-thia-4-azabicyclo[4.1.0]hept-3-ene-1-carboxamide], the IC50 on human recombinant BACE1 stood at 0.000201 µM; on human recombinant BACE2 it was 0.00604 µM; in experiment [1] it was 0.000644 µM; at Recombinant Cat D it was 1080 µM.

In the case of `COC[C@]12C[C@H]1[C@@](C)(c1cc(NC(=O)c3cnc(OCCCF)cn3)cc(F)c1F)N=C(N)S2` [Example 740, N-(3-((1S,5S,6S)-3-amino-1-(methoxymethyl)-5-methyl-2-thia-4-azabicyclo[4.1.0]hept-3-en-5-yl)-4,5-difluorophenyl)-5-(3-fluoropropoxy)-2-pyrazinecarboxamide], the IC50 on human recombinant BACE1 came to 0.0055 µM; at human recombinant BACE2, 0.209 µM; in experiment [1], 0.0194 µM; at Recombinant Cat D, 927 µM.

Take `C[C@]1(c2cc(NC(=O)c3cnc(OCC(F)(F)F)cn3)ccc2F)N=C(N)S[C@@]2(C(=O)NC3CC3(F)F)C[C@H]21` (stereo partly drawn) [Example 982, (1S,5S,6S)-3-amino-N-(2,2-difluorocyclopropyl)-5-(2-fluoro-5-(5-(2,2,2-trifluoroethoxy)pyrazine-2-carboxamido)phenyl)-5-methyl-2-thia-4-azabicyclo[4.1.0]hept-3-ene-1-carboxamide]: the half-maximal inhibitory concentration (IC50) amounted to 0.000679 µM on human recombinant BACE1, 0.032 µM at human recombinant BACE2, 0.00329 µM in experiment [1] and 175 µM at Recombinant Cat D.

As for `C#CCOc1cnc(C(=O)Nc2ccc(F)c([C@@]3(C)N=C(N)S[C@@]4(C(=O)NCC)C[C@H]43)c2)cn1` [Example 1017, (1S,5S,6S)-3-amino-N-ethyl-5-(2-fluoro-5-(5-(prop-2-yn-1-yloxy)pyrazine-2-carboxamido)phenyl)-5-methyl-2-thia-4-azabicyclo[4.1.0]hept-3-ene-1-carboxamide], the half-inhibitory concentration (IC50) at human recombinant BACE1 turned out to be 0.000266 µM; on human recombinant BACE2 it was 0.00982 µM; in experiment [1] it was 0.000106 µM; at Recombinant Cat D, 22.5 µM.

For the molecule `NC1=N[C@](CF)(c2cc(NC(=O)c3ccc(Cl)cn3)ccc2F)[C@@H]2C3CSC[C@]32S1` (stereo partly drawn) [Example 753, N-(3-((4S,4aS,7aR)-2-amino-4-(fluoromethyl)-4a,4b,5,7-tetrahydro-4H-thieno[3′,4′:2,3]cyclopropa[1,2-e][1,3]thiazin-4-yl)-4-fluorophenyl)-5-chloropicolinamide], the IC50 on human recombinant BACE1 was found to be 0.00339 µM; on human recombinant BACE2 it was 0.00304 µM; in experiment [1], 0.0964 µM; on Recombinant Cat D, 420 µM.

Turning to `C[C@]1(c2cc(Nc3ncnc4cc(C#N)cnc34)ccc2F)N=C(N)S[C@@]2(CO)[C@@H]1C2(F)F` [Example 961, 4-((3-((1R,5S,6S)-3-amino-7,7-difluoro-1-(hydroxymethyl)-5-methyl-2-thia-4-azabicyclo[4.1.0]hept-3-en-5-yl)-4-fluorophenyl)amino)pyrido[3,2-d]pyrimidine-7-carbonitrile], the half-inhibitory concentration (IC50) at human recombinant BACE1 came out at 0.012 µM; on human recombinant BACE2, 0.0223 µM; in experiment [1] it was 0.0214 µM; at Recombinant Cat D, 171 µM.

Take `C[C@]1(c2cc(NC(=O)c3ccc(OCC(F)(F)F)cn3)cc(F)c2F)N=C(N)S[C@@]2(C#N)C[C@H]21` [Example 1012, N-(3-((1S,5S,6S)-3-amino-1-cyano-5-methyl-2-thia-4-azabicyclo[4.1.0]hept-3-en-5-yl)-4,5-difluorophenyl)-5-(2,2,2-trifluoroethoxy)-2-pyridinecarboxamide]: the IC50 on human recombinant BACE1 was 0.00399 µM; at human recombinant BACE2 it was 0.095 µM; in experiment [1] it was 0.111 µM; on Recombinant Cat D, above 400 µM.

Regarding `C[C@]1(c2cc(Nc3ncnc4cc(OCc5ncco5)cnc34)cc(F)c2F)N=C(N)S[C@@]2(C(N)=O)C[C@H]21` [Example 918, (1S,5S,6S)-3-amino-5-(2,3-difluoro-5-((7-(1,3-oxazol-2-ylmethoxy)pyrido[3,2-d]pyrimidin-4-yl)amino)phenyl)-5-methyl-2-thia-4-azabicyclo[4.1.0]hept-3-ene-1-carboxamide], the IC50 came out at 0.000861 µM at human recombinant BACE1, 0.0389 µM at human recombinant BACE2, 0.000733 µM in experiment [1] and 86.9 µM on Recombinant Cat D.

`COC[C@]12C[C@H]1[C@@](C)(c1cc(NC(=O)c3cnc(OCc4cc(C)no4)cn3)cc(F)c1F)N=C(N)S2` [Example 1031, N-(3-((1S,5S,6S)-3-amino-1-(methoxymethyl)-5-methyl-2-thia-4-azabicyclo[4.1.0]hept-3-en-5-yl)-4,5-difluorophenyl)-5-((3-methyl-5-isoxazolyl)methoxy)-2-pyrazinecarboxamide]: the IC50 was 0.00107 µM at human recombinant BACE1, 0.0897 µM on human recombinant BACE2, 0.152 µM in experiment [1] and 775 µM on Recombinant Cat D.
